Laboratory results from ChEMBL document CHEMBL2434945, “Anti-inflammatory constituents from the fruits of Vitex rotundifolia” (Bioorg Med Chem Lett, 2013).

Tests used:
[1] = Cytotoxicity against mouse RAW264.7 cells assessed as cell viability by colorimetric method relative to control; type: cell-based; design: concentration or dose not given beside the values; conditions: read-out: Activity
RAW264.7 = assay: Antiinflammatory activity against mouse RAW264.7 cells assessed as inhibition of LPS-induced NO production after 24 hrs by Griess method; type: functional, cell-based; conditions: RAW264.7, 24 h

Compound	viability [1] [%]	IC50 (RAW264.7) [µM]
C[C@@H]1CC[C@H]2C(C)(C)CCC[C@]2(C)[C@@]12CC/C(=C\C=O)O2	> 90	41.8
CC(C)(O)c1ccc2c(c1)CC[C@H]1C(C)(C)[C@@H](O)CC[C@]21C	> 90	> 50
COc1ccc(-c2oc3cc(OC)c(OC)c(O)c3c(=O)c2OC)cc1O [CASTICIN]	> 90	21.4
COc1cc([C@H]2Oc3c(OC)cc(CCCO)cc3[C@@H]2CO)ccc1O [DIHYDRODEHYDRODICONIFERY ALCOHOL]	> 90	38.7
COc1cc(C[C@H]2CO[C@H](c3ccc(O)c(OC)c3)[C@H]2CO)ccc1O [LARICIRESINOL]	> 90	> 50
N=C(N)NN [PIMAGEDINE]	> 90	–
CC(=O)O[C@@H]1C[C@@H](C)[C@](O)(CCC2=CC(=O)OC2O)[C@@]2(C)CCCC(C)(C)[C@H]12 (some centres undefined) [VITEAGNUSIN I]	> 90	11.3
CC(=O)O[C@H]1CC[C@@]2(C)[C@@H](CC[C@@H](C)[C@]23CCC(=O)O3)C1(C)C [VITEDOIN B]	> 90	> 50
C=CC(C)(O)CC[C@@]1(C)C2=C([C@H](OC(C)=O)[C@H](OC(C)=O)[C@H]1C)C(C)(C)CCC2 (some centres undefined) [VITETRIFOLIN D]	> 90	24.5
CC(=O)O[C@@H]1C[C@@H](C)[C@](O)(CCC2=CC(=O)OC2)[C@@]2(C)CCCC(C)(C)[C@H]12 [VITEXILACTONE]	> 90	42.5
